Results reported in the NIST ThermoML archive (doi:10.1016/j.jct.2019.05.002).

Assay: xn = mol fraction of the nth substance listed
Settings: 100 kPa, Liquid; for speed of sound: Frequency=3 MHz, Single path-length method; for mass density: Vibrating tube method

CCC(O)CO (stereo not given) [1,2-butanediol] + CCCC(=O)OCC
Settings	mass density [kg/m3]	speed of sound [m/s]
298.15 K, x2 = 0	998.56	1452.5
298.15 K, x2 = 0.1011	986	1424.2
298.15 K, x2 = 0.2032	973.31	1395.5
298.15 K, x2 = 0.3034	960.87	1367.4
298.15 K, x2 = 0.4004	948.81	1340.2
298.15 K, x2 = 0.5064	935.64	1310.5
298.15 K, x2 = 0.6021	923.76	1283.6
298.15 K, x2 = 0.7043	911.06	1254.9
298.15 K, x2 = 0.8009	899.06	1227.9
298.15 K, x2 = 0.9012	886.59	1199.7
303.15 K, x2 = 0	994.75	1437.9
303.15 K, x2 = 0.1011	982.02	1408.9
303.15 K, x2 = 0.2032	969.16	1379.6
303.15 K, x2 = 0.3034	956.55	1350.9
303.15 K, x2 = 0.4004	944.33	1323
303.15 K, x2 = 0.5064	930.98	1292.6
303.15 K, x2 = 0.6021	918.93	1265.2
303.15 K, x2 = 0.7043	906.06	1235.8
303.15 K, x2 = 0.8009	893.9	1208.1
303.15 K, x2 = 0.9012	881.27	1179.3
308.15 K, x2 = 0	990.92	1423.3
308.15 K, x2 = 0.1011	978.03	1393.7
308.15 K, x2 = 0.2032	965.01	1363.7
308.15 K, x2 = 0.3034	952.23	1334.3
308.15 K, x2 = 0.4004	939.86	1305.9
308.15 K, x2 = 0.5064	926.34	1274.8
308.15 K, x2 = 0.6021	914.14	1246.7
308.15 K, x2 = 0.7043	901.11	1216.7
308.15 K, x2 = 0.8009	888.79	1188.4
308.15 K, x2 = 0.9012	876	1159
313.15 K, x2 = 0	987.11	1408.7
313.15 K, x2 = 0.1011	974.05	1378.4
313.15 K, x2 = 0.2032	960.87	1347.8
313.15 K, x2 = 0.3034	947.93	1317.8
313.15 K, x2 = 0.4004	935.41	1288.7
313.15 K, x2 = 0.5064	921.72	1256.9
313.15 K, x2 = 0.6021	909.36	1228.3
313.15 K, x2 = 0.7043	896.16	1197.6
313.15 K, x2 = 0.8009	883.69	1168.7
313.15 K, x2 = 0.9012	870.74	1138.6
318.15 K, x2 = 0	983.28	1394.1
318.15 K, x2 = 0.1011	970.05	1363.2
318.15 K, x2 = 0.2032	956.7	1331.9
318.15 K, x2 = 0.3034	943.59	1301.2
318.15 K, x2 = 0.4004	930.9	1271.5
318.15 K, x2 = 0.5064	917.03	1239.1
318.15 K, x2 = 0.6021	904.51	1209.8
318.15 K, x2 = 0.7043	891.14	1178.5
318.15 K, x2 = 0.8009	878.51	1148.9
318.15 K, x2 = 0.9012	865.39	1118.2
323.15 K, x2 = 0	979.46	1379.5
323.15 K, x2 = 0.1011	966.07	1347.9
323.15 K, x2 = 0.2032	952.55	1316
323.15 K, x2 = 0.3034	939.28	1284.7
323.15 K, x2 = 0.4004	926.44	1254.4
323.15 K, x2 = 0.5064	912.4	1221.3
323.15 K, x2 = 0.6021	899.72	1191.4
323.15 K, x2 = 0.7043	886.19	1159.4
323.15 K, x2 = 0.8009	873.4	1129.2
323.15 K, x2 = 0.9012	860.11	1097.9

CC(O)CCO (stereo not given) [1,3-butanediol] + CCCC(=O)OCC
Settings	mass density [kg/m3]	speed of sound [m/s]
298.15 K, x2 = 0	1001.87	1527.9
298.15 K, x2 = 0.1034	988.68	1491.1
298.15 K, x2 = 0.203	975.97	1455.7
298.15 K, x2 = 0.305	962.97	1419.4
298.15 K, x2 = 0.3835	952.95	1391.4
298.15 K, x2 = 0.4936	938.91	1352.2
298.15 K, x2 = 0.5811	927.76	1321.1
298.15 K, x2 = 0.6878	914.14	1283.1
298.15 K, x2 = 0.7997	899.87	1243.3
298.15 K, x2 = 0.8818	889.39	1214.1
303.15 K, x2 = 0	998.41	1514
303.15 K, x2 = 0.1034	985.01	1476.5
303.15 K, x2 = 0.203	972.1	1440.3
303.15 K, x2 = 0.305	958.89	1403.3
303.15 K, x2 = 0.3835	948.71	1374.8
303.15 K, x2 = 0.4936	934.45	1334.8
303.15 K, x2 = 0.5811	923.12	1303.1
303.15 K, x2 = 0.6878	909.28	1264.3
303.15 K, x2 = 0.7997	894.79	1223.7
303.15 K, x2 = 0.8818	884.14	1193.9
308.15 K, x2 = 0	994.94	1500.1
308.15 K, x2 = 0.1034	981.34	1461.9
308.15 K, x2 = 0.203	968.23	1425
308.15 K, x2 = 0.305	954.82	1387.2
308.15 K, x2 = 0.3835	944.49	1358.2
308.15 K, x2 = 0.4936	930.01	1317.4
308.15 K, x2 = 0.5811	918.51	1285.1
308.15 K, x2 = 0.6878	904.47	1245.5
308.15 K, x2 = 0.7997	889.75	1204.1
308.15 K, x2 = 0.8818	878.94	1173.7
313.15 K, x2 = 0	991.49	1486.2
313.15 K, x2 = 0.1034	977.69	1447.2
313.15 K, x2 = 0.203	964.38	1409.6
313.15 K, x2 = 0.305	950.77	1371.2
313.15 K, x2 = 0.3835	940.28	1341.5
313.15 K, x2 = 0.4936	925.59	1300
313.15 K, x2 = 0.5811	913.91	1267
313.15 K, x2 = 0.6878	899.66	1226.8
313.15 K, x2 = 0.7997	884.72	1184.6
313.15 K, x2 = 0.8818	873.76	1153.6
318.15 K, x2 = 0	988.02	1472.3
318.15 K, x2 = 0.1034	974.01	1432.6
318.15 K, x2 = 0.203	960.49	1394.3
318.15 K, x2 = 0.305	946.68	1355.1
318.15 K, x2 = 0.3835	936.03	1324.9
318.15 K, x2 = 0.4936	921.1	1282.6
318.15 K, x2 = 0.5811	909.25	1249
318.15 K, x2 = 0.6878	894.78	1208
318.15 K, x2 = 0.7997	879.61	1165
318.15 K, x2 = 0.8818	868.48	1133.4
323.15 K, x2 = 0	984.56	1458.4
323.15 K, x2 = 0.1034	970.34	1417.9
323.15 K, x2 = 0.203	956.63	1378.9
323.15 K, x2 = 0.305	942.62	1339
323.15 K, x2 = 0.3835	931.81	1308.3
323.15 K, x2 = 0.4936	916.67	1265.2
323.15 K, x2 = 0.5811	904.65	1231
323.15 K, x2 = 0.6878	889.97	1189.2
323.15 K, x2 = 0.7997	874.58	1145.4
323.15 K, x2 = 0.8818	863.28	1113.3

OCCCCO [1,4-butanediol] + CCCC(=O)OCC
Settings	mass density [kg/m3]	speed of sound [m/s]
298.15 K, x2 = 0	1012.8	1601.9
298.15 K, x2 = 0.1009	998.83	1558.5
298.15 K, x2 = 0.1986	985.3	1516.5
298.15 K, x2 = 0.3254	967.74	1461.9
298.15 K, x2 = 0.4231	954.2	1419.9
298.15 K, x2 = 0.5008	943.44	1386.5
298.15 K, x2 = 0.5895	931.16	1348.4
298.15 K, x2 = 0.7128	914.08	1295.3
298.15 K, x2 = 0.8015	901.8	1257.2
298.15 K, x2 = 0.9105	886.7	1210.3
303.15 K, x2 = 0	1009.77	1590.3
303.15 K, x2 = 0.1009	995.55	1545.9
303.15 K, x2 = 0.1986	981.78	1503
303.15 K, x2 = 0.3254	963.91	1447.4
303.15 K, x2 = 0.4231	950.15	1404.4
303.15 K, x2 = 0.5008	939.2	1370.3
303.15 K, x2 = 0.5895	926.7	1331.4
303.15 K, x2 = 0.7128	909.32	1277.2
303.15 K, x2 = 0.8015	896.82	1238.3
303.15 K, x2 = 0.9105	881.46	1190.4
308.15 K, x2 = 0	1006.74	1578.6
308.15 K, x2 = 0.1009	992.28	1533.4
308.15 K, x2 = 0.1986	978.27	1489.5
308.15 K, x2 = 0.3254	960.1	1432.7
308.15 K, x2 = 0.4231	946.09	1388.9
308.15 K, x2 = 0.5008	934.96	1354
308.15 K, x2 = 0.5895	922.24	1314.2
308.15 K, x2 = 0.7128	904.57	1258.9
308.15 K, x2 = 0.8015	891.85	1219.2
308.15 K, x2 = 0.9105	876.23	1170.3
313.15 K, x2 = 0	1003.7	1567
313.15 K, x2 = 0.1009	988.99	1520.7
313.15 K, x2 = 0.1986	974.75	1476
313.15 K, x2 = 0.3254	956.27	1417.9
313.15 K, x2 = 0.4231	942.03	1373.2
313.15 K, x2 = 0.5008	930.7	1337.6
313.15 K, x2 = 0.5895	917.77	1297
313.15 K, x2 = 0.7128	899.8	1240.5
313.15 K, x2 = 0.8015	886.87	1199.9
313.15 K, x2 = 0.9105	870.99	1150
318.15 K, x2 = 0	1000.67	1555.3
318.15 K, x2 = 0.1009	985.72	1508.1
318.15 K, x2 = 0.1986	971.24	1462.5
318.15 K, x2 = 0.3254	952.45	1403.2
318.15 K, x2 = 0.4231	937.98	1357.6
318.15 K, x2 = 0.5008	926.46	1321.3
318.15 K, x2 = 0.5895	913.32	1279.8
318.15 K, x2 = 0.7128	895.05	1222.2
318.15 K, x2 = 0.8015	881.9	1180.7
318.15 K, x2 = 0.9105	865.75	1129.8
323.15 K, x2 = 0	997.63	1543.7
323.15 K, x2 = 0.1009	982.43	1495.6
323.15 K, x2 = 0.1986	967.72	1449
323.15 K, x2 = 0.3254	948.62	1388.6
323.15 K, x2 = 0.4231	933.91	1342
323.15 K, x2 = 0.5008	922.21	1305
323.15 K, x2 = 0.5895	908.85	1262.7
323.15 K, x2 = 0.7128	890.28	1204
323.15 K, x2 = 0.8015	876.92	1161.7
323.15 K, x2 = 0.9105	860.51	1109.8
